This note sets out measurements from patent publication US12502369B2, “Methods of cancer treatment” (K-GEN, INC., priority 2015, dated 2025).

Where two headings read alike, the source gives them in different places. A value given as a limit tells only on which side of the number the result lay.

The subject of assay [1] is H441. Description: Proliferation assay (CellTiter Glo), H441. The format is cell-based. The conditions noted are these: for Top inhibition %: 96 hours. Here is the method:
(§1) Briefly, cells at a density of 1,000-10,000 cells/well were seeded in 96-well plates and incubated at 37′C for 24 hours. A series of 9 different concentrations of compound stocks (500×) were created by 3-fold serial dilution in DMSO. These compounds were further diluted in culture media and then added to cells so that the final DMSO concentration was 0.2%. After 96 hours of incubation, 50 μL of CellTiter Glo reagent (Promega) was added to each well and luminescence was measured after 10 minutes using EnVision (PerkinElmer). […] The dose range for most compounds was 4.6 nM-30 μM. The dose ranges for some compounds were adjusted downward to 0.46 nM-3 μM or 0.08 nM-0.5 μM or 0.03 nM-0.2 μM. Luminescence from cells treated with […] alone was set as Max and % of inhibition was calculated as follows: Inhibition %=(Max-Sample value)/Max*100. Data was analyzed using XL-fit software (ID Business Solutions Ltd.) and EC50, relative EC50, and % of top inhibition were calculated. The results are shown in Tables 3-6 for pancreatic cancer, lung cancer, colon/gastric cancer, and leukemia cell lines.
In general terms: ATP-based viability assays read luminescence as a measure of living cells.

The test system of assay [2] is PKC substrates in A549 cells. The experiment in a line: Global PKC activation (phosphorylated PKC substrates), Western blot, A549. The format is cell-based. To be noted: 30 minutes, Phospho-PKC substrate Motif MultiMab. As for the experimental part: (§2) A549 lung cancer cells (˜3 million cells) were seeded in 10 cm tissue culture dishes and grown overnight. Cells were then treated with different drugs at indicated concentrations (see FIG. 9A for global activation of PKC and FIG. 10 for activation of PKC isoforms) for 30 minutes. Panc2.13 pancreatic cells (˜5 million) were seeded and treated as in FIG. 9B for global activation of PKC. Cell lysate preparation, protein quantitation, SDS-PAGE, and Western blotting procedures are described in Example 2. Primary antibodies used in this Example and later Examples of this application are shown in Table A. Western blot membranes were scanned using Odyssey® Imaging System (Licor Biosciences) if secondary antibodies Anti-mouse IgG Dylight 800 conjugate or Anti-rabbit IgG DyLight 680 conjugate (1:10000)(Cell signaling or similar IR 2nd antibodies from different vendors) were used. Alternatively, Imagequant LAS4000 (GE) was used to scan membranes if secondary antibodies Anti-mouse IgG HRP conjugate or Anti-rabbit IgG HRP conjugate (dilutions from 1:2000-1:10000) were used.
Background: A western blot detects proteins with antibodies after separation by electrophoresis.

Assay [3] has as its system PKC isoforms in A549 cells. Description: Activation of PKC isoforms, Western blot, A549. The format is cell-based. The conditions noted are these: 30 minutes; for P-PKC (pan)(βII Ser660) and P-PKCα/β (Thr638/641): high levels already in DMSO treated cells. As for the experimental part:
as §2

Assay [4] has as its system BxPC-3. Description: Proliferation assay (CellTiter Glo), BxPC-3. The format is cell-based. The conditions noted are these: BxPC-3 (WT K-ras). As for the experimental part:
as §1, with “calculated.” for “calculated. The results are shown in Tables 3-6 for pancreatic cancer, lung cancer, colon/gastric cancer, and leukemia cell lines.”
Other cancer cell lines having wild-type K-ras status and K-ras mutation at G12 were also screened using the PKC activator compounds. […] K-104 was tested in a range of 0.03 nM-0.2 μM. […] The dose ranges were adjusted downward to 0.46 nM-3 μM for K-102 and 0.08 nM-0.5 μM for K-103 for some cell lines.

Assay [5] concerns CCRF-CEM. The experiment in a line: Proliferation assay (CellTiter Glo), CCRF-CEM. To be noted: for Top inhibition %: 96 hours. The format is cell-based. As for the experimental part: as §1
In assay [6] the test system is PKC substrates in Panc2.13 cells. The experiment in a line: Global PKC activation (phosphorylated PKC substrates), Western blot, Panc2.13. The format is cell-based. The conditions noted are these: Phospho-(Ser) PKC Substrate Antibody. As for the experimental part:
as §2

In assay [7] the test system is MBT-2. Description: Anti-cell proliferative effects, MBT-2. The format is cell-based, mouse.
Assay [8] concerns LS180. The experiment in a line: Proliferation assay (CellTiter Glo), LS180. The format is cell-based. The conditions noted are these: for Top inhibition %: 96 hours; for EC50: absolute EC50, 96 hours, read-out: Ab EC50. As for the experimental part: as §1
The test system of assay [9] is PKCδ, PKCμ, c-Raf in MBT-2. The experiment in a line: Activation of PKC isoforms in bladder cancer line MBT-2, Western blot. The format is cell-based, mouse.
Assay [10] concerns HL60. Description: Proliferation assay (CellTiter Glo), HL60. The format is cell-based. The conditions noted are these: for Top inhibition %: 96 hours. Here is the method:
as §1

Assay [11] relates to A549 cells. Description: Soft agar colony formation assay. The format is cell-based. The conditions noted are these: 7-10 days, 9-point dilution series. As for the experimental part: To prepare the base agar layer (0.6%), melted 1.2% agar solution was mixed 1:1 (v/v) with 2×DMEM/20% FBS medium in a tube by inverting several times and 50 μL of the mixture was immediately transferred to a well in a 96-well flat-bottom microplate. The plate was placed at 4° C. for 30 minutes to allow the base agar layer to solidify. Then, the cell agar layer (agar 0.4%) was prepared by transferring 75 μL of the cell and agar mixture containing 1:1:1 (v/v/v) of 1.2% agar solution, 2×DMEM/20% FBS and cell suspension (0.4-4×10^5/mL) to each well of the plates so that each well contained 1000-10000 cells per well. The plates were placed at 4° C. for 15 minutes and then 75 μL of media were added to each well. After incubating the plates overnight in a CO2 incubator, 50 μL of media with or without 5× final concentrations of compounds were added to each well. Each compound was tested in 9-point 3-fold dilution series. The plates were incubated for 7-10 days at 37° C. At the end of incubation period, 28 μL of Calcein AM solution (5 μM) was added to the center of each well. The plates were incubated at 37° C. for 45 minutes before scanning on Acumen (TTP Labtech). Each compound was tested in triplicates. Data was analyzed and compound EC50s were calculated using GraphPad Prism 5.

Assay [12] deals with MH22A. The experiment in a line: Anti-cell proliferative effects, MH22A. The format is cell-based, mouse.
In assay [13] the test system is SW620. The experiment in a line: Proliferation assay (CellTiter Glo), SW620. The format is cell-based. To be noted: for Top inhibition %: 96 hours; for EC50: read-out: Ab EC50. As for the experimental part: as §1
The mark [14] stands for this setting: absolute EC50, 96 hours, read-out: Ab EC50.
Where [15] appears, read: relative EC50, 96 hours, read-out: Re EC50.

On to `CC(=O)O[C@@]12C[C@@H](C)[C@]3(O)C4C=C(C)C(=O)[C@@]4(O)CC(CO)=C[C@H]3[C@@H]1C2(C)C` (stereo partly drawn) [Compound K-101A, Prostratin], for which the Top inhibition % in assay [1] amounted to 42.1%; in assay [4] it was 40.11%; in assay [5], 35.9%; in assay [8], 4.4%; in [10], 61.3%; in [13], 0.0%. Further, the EC50 in assay [1] (Homo sapiens, NCI-H441, absolute EC50, 96 hours, read-out: Ab EC50) was greater than 30 µM; in assay [1] (Homo sapiens, NCI-H441, relative EC50, 96 hours, read-out: Re EC50), 0.32 µM; in [5] (Homo sapiens, absolute EC50, 96 hours, read-out: Ab EC50) it was greater than 30 µM; in assay [5] (Homo sapiens, relative EC50, 96 hours, read-out: Re EC50), 0.051 µM; in assay [8] (Homo sapiens), greater than 30 µM; in assay [10] (Homo sapiens, HL-60, absolute EC50, 96 hours, read-out: Ab EC50), 0.47 µM. The EC50 in assay [10] (Homo sapiens, HL-60, relative EC50, 96 hours, read-out: Re EC50) was 0.4 µM; in assay [13] (Homo sapiens, SW-620, absolute EC50, 96 hours) it was greater than 30 µM. In addition, the “phosphorylation of PKC substrates (global activation of PKC)” value (shortened to “phosphorylation of PKC substrates”) in assay [2] and in [6] was “induced dose-dependent phosphorylation” throughout. Besides, the “P-PKCδ (Thr505) and P-PKCδ/θ (Ser643/676)” value (“P-PKCδ (Thr505) and P-PKCδ/θ” for short) in [3] is “dose-dependent increases”. In assay [3], the “P-PKC (pan)(βII Ser660) and P-PKCα/β (Thr638/641)” value is “no further increases”. For the same compound, the “sensitivity to anti-cell proliferative effects” value is given as “sensitive” in assay [7] and “insensitive” in [12]. Further, the “phosphorylations of PKCδ at Thr505, PKCμ at Ser744/748, PKCμ at Ser916, c-Raf at Ser338” value in assay [9] was “induced phosphorylations”. Further, the “number of colonies formed in soft agar” value in assay [11] is “reduced the number of colonies”.
With `CC(=O)OCC1=C[C@H]2[C@@H]3C(C)(C)[C@]3(OC(C)=O)C[C@@H](C)[C@]2(O)C2C=C(C)C(=O)[C@@]2(O)C1` (stereo partly drawn) [Compound K-101E], the Top inhibition % in assay [1] was 49.1%; in assay [4], 38.87%; in assay [5], 34.3%; in assay [8], 1.3%; in assay [10] it was 63.4%; in [13], 0.0%. Also, the EC50 in [1] (setting [14]) is greater than 30 µM; in assay [1] (setting [15]), 2.61 µM; in [5] (setting [14]), greater than 30 µM; in assay [5] (setting [15]), 0.27 µM; in [8] it was greater than 30 µM; in assay [10] (setting [14]), 3.05 µM. Also, the EC50 in [10] (setting [15]) was 1.92 µM; in assay [13] (absolute EC50, 96 hours) it was greater than 30 µM. Besides, the “phosphorylation of PKC substrates” value in assay [2] and in assay [6] was “nearly no effect” in each case. Moreover, the “P-PKCδ (Thr505) and P-PKCδ/θ” value in [3] is “no effects”. In addition, the “number of colonies formed in soft agar” value in assay [11] was “reduced the number of colonies”.
On to `C/C=C(/C)C(=O)O[C@H]1C(C)=C[C@]23C(=O)[C@@H](C=C(CO)[C@@H](O)[C@]12O)[C@H]1[C@@H](C[C@H]3C)C1(C)C` [Compound K-102, Ingenol-3-angelate, reference compound], for which the “phosphorylation of PKC substrates” value in assay [2] and in assay [6] was “induced dose-dependent phosphorylation” in each case. For the same compound, the “P-PKCδ (Thr505) and P-PKCδ/θ” value in assay [3] is reported as “dose-dependent increases”. The “P-PKC (pan)(βII Ser660) and P-PKCα/β (Thr638/641)” value in assay [3] is on record as “no further increases”. In addition, the “sensitivity to anti-cell proliferative effects” value in [7] is listed as “sensitive”; in [12] it was “insensitive”. Also, the “phosphorylations of PKCδ at Thr505, PKCμ at Ser744/748, PKCμ at Ser916, c-Raf at Ser338” value in assay [9] (MBT-2, K101A 1 μM, K102 0.1 μM) is given as “induced phosphorylations”. For the same compound, the “number of colonies formed in soft agar” value in [11] is recorded as “reduced the number of colonies”.

One may read the EC50 as the concentration that produces a half-maximal response.
